What was measured:
[1] = test system: renal injury markers (Ngal, Havcr1), inflammatory cytokines (TNF, IL-6, IL-1), fibrosis-related factors (α-Sma, Col1a1, Tgfb1); test: Folic acid acute kidney injury model in mice: Q-PCR of kidney tissue; assay type: in vivo, C57BL/6 mice; parameters: Tnf / Il1 / Il6: unit not given here; details: kidney mRNA, acute model (FA)
[2] = test system: MC903-induced atopic dermatitis (AD); test: MC903-induced ear atopic dermatitis mouse model, Compound 1 ointment: ear thickness and dermatitis score; assay type: in vivo, mice; details: for inhibition rate (ear thickness): final day; for Dermatitis Score: ear, score max 12
Protocol: Weigh white petrolatum, light liquid paraffin, glyceryl monostearate, ethylparaben, and cetyl alcohol. Heat to 65 °C while stirring until dissolved. Slowly add the dissolved active pharmaceutical ingredient (API) while continuing to stir until uniformly mixed. Set aside. • (2) Aqueous Phase Preparation: […] Slowly add the aqueous phase to the oil phase while maintaining 65 °C, homogenize, and continue stirring for 30 min; • (4) Cooling: Stop heating, continue stirring, gradually reduce to room temperature, cool to form an ointment, and fill containers. […] Dissolve these substances in a small amount of propylene glycol, then place the resulting solution into the aforementioned pre-cooled blank ointment base. […] Skin Lesion Severity Score: […] Statistical analysis was performed on the data.

lupus nephritis = test: Lupus nephritis MRL/lpr mice: urinary protein, Scr, BUN, urinary Kim-1 and β-MG; assay type: in vivo; parameters: Scr / BUN / Kim-1 / β-MG: unit not given here; details: oral 30 mg/kg, 8 weeks
Protocol: RT Supermix for qPCR, Nanjing Vazyme Biotech Co., Ltd.; Urea Colorimetric Test Kit, Creatinine Colorimetric Test Kit, Nanjing Jiancheng Biotechnology Co., Ltd.; Urinary Kim-1 and β-MG Content ELISA Kits, Abcam. • Experimental animals: MRL/MpJ and MRL/lpr mice, female, 10 weeks old, purchased from GemPharmatech LLC. Production license number: SCXK(Su)2023-0009. […] They were acclimated for 7 days before use in experiments. […] Oral administration was performed continuously for 8 weeks. […] Aspirate the serum, aliquot it, and store at -70 °C for future use. After blood collection, euthanize mice by cervical dislocation. Open the abdominal cavity, remove kidneys, and dissect out perirenal fat and capsules. […] Store remaining tissues at -70 °C for future use. Serum Creatinine (Scr) and Blood Urea Nitrogen (BUN) Assay: […] Samples were added sequentially strictly according to the kit instructions, incubated at 37 °C, and measured for absorbance values using an enzyme-linked immunosorbent assay (ELISA) reader. The concentration levels of each indicator were calculated based on the standard curve.

[3] = test system: renal injury markers (Kim-1, Ngal), inflammatory factors (MCP-1, TNF-α); test: Diabetic nephropathy (DKD) mice: Q-PCR of kidney tissue; assay type: in vivo, C57/BL6J mice; details: kidney mRNA, gavage 10 mg/kg
Protocol: Production license number: SCXK(Su)2023-0009. […] Animals were acclimated for 7 days before use in experiments.
Administer streptozotocin (STZ, 50 mg/kg) via intraperitoneal injection for 5 consecutive days. After 72 hours, select mice with fasting blood glucose levels exceeding 16.7 mmol/L as model mice. […] Model mice were fed a high-fat diet (HFD) providing 60% of energy from fat for 8 weeks. After 8 weeks, gavage administration commenced.
Specimen Collection: One hour after the last drug administration, enucleate the eyeball to collect blood. Allow blood to stand at room temperature for 2 hours, then centrifuge at 3000 rpm for 20 minutes. Aspirate the serum, aliquot it, and store at -70 °C for future use. After blood collection, euthanize the mice by cervical dislocation. Open the abdominal cavity, remove the kidneys, and dissect away the perirenal fat and capsule. Store the tissue at -70 °C for future use.
Additional primer information is as follows: Table 24. Additional Information on Q-PCR Primers

MDSCs and T cells = test: T cell proliferation in a co-culture model of MDSCs and T cells (flow cytometry); assay type: cell-based, mice; details: MDSCs treated with 1 µM compound for 12 h, 48 h co-culture with T cells (1:1), compared to the control group

`C=C1C(=O)O[C@@H]2[C@@H]3[C@]4(CC[C@@]3(C)O)C[C@]4(C)CC[C@@H]12` [compound 1] showed a Col1a1 ([1]; oral 0.1 mg/kg) of 1.64±0.16, a Havcr1 ([1]; oral 0.1 mg/kg) of 175.10±17.63 and an Il1 ([1]; oral 0.1 mg/kg) of 2.62±0.56. It also gave an Il6 ([1]; oral 0.1 mg/kg) of 8.02±0.77, a Ngal ([1]; oral 0.1 mg/kg) of 30.52±5.05 and a Tgfb1 ([1]; oral 0.1 mg/kg) of 1.96±0.17. The Tnf ([1]; oral 0.1 mg/kg) was 2.89±0.59, the α-Sma ([1]; oral 0.1 mg/kg) was 1.82±0.19 and the Col1a1 ([1]; oral 1 mg/kg) was 1.32±0.15. For the same molecule, the Havcr1 ([1]; oral 1 mg/kg) was 99.99±7.98, the Il1 ([1]; oral 1 mg/kg) was 1.72±0.45 and the Il6 ([1]; oral 1 mg/kg) was 3.98±0.59. The Ngal ([1]; oral 1 mg/kg) was 20.17±2.21, the Tgfb1 ([1]; oral 1 mg/kg) was 1.36±0.10 and the Tnf ([1]; oral 1 mg/kg) was 2.76±0.71. For the same molecule, the α-Sma ([1]; oral 1 mg/kg) was 1.42±0.11, the “inhibition rate (ear thickness)” value ([2]; 0.01% Compound 1 ointment) was 71% and the ear thickness ([2]; 0.01% ointment, Day 1) was 0.14±0.00 mm. The ear thickness ([2]; 0.01% ointment, Day 3) was 0.17±0.00 mm, the ear thickness ([2]; 0.01% ointment, Day 5) was 0.21±0.00 mm and the ear thickness ([2]; 0.01% ointment, Day 7) was 0.22±0.00 mm. For the same molecule, the ear thickness ([2]; 0.01% ointment, Day 8) was 0.23±0.01 mm, the ear thickness ([2]; 0.01% ointment, Day 9) was 0.23±0.01 mm and the ear thickness ([2]; 0.01% ointment, Day 10) was 0.25±0.00 mm. The ear thickness ([2]; 0.01% ointment, Day 11) was 0.26±0.01 mm, the ear thickness ([2]; 0.01% ointment, Day 12) was 0.26±0.01 mm and the ear thickness ([2]; 0.01% ointment, Day 13) was 0.22±0.01 mm. For the same molecule, the ear thickness ([2]; 0.01% ointment, Day 14) was 0.21±0.01 mm, the “inhibition rate (ear thickness)” value ([2]; 0.1% Compound 1 ointment) was 71% and the ear thickness ([2]; 0.1% ointment, Day 1) was 0.14±0.00 mm. It also gave an ear thickness ([2]; 0.1% ointment, Day 3) of 0.17±0.00 mm, an ear thickness ([2]; 0.1% ointment, Day 5) of 0.21±0.00 mm and an ear thickness ([2]; 0.1% ointment, Day 7) of 0.21±0.00 mm. The ear thickness ([2]; 0.1% ointment, Day 8) was 0.23±0.00 mm, the ear thickness ([2]; 0.1% ointment, Day 9) was 0.23±0.00 mm and the ear thickness ([2]; 0.1% ointment, Day 10) was 0.23±0.00 mm. For the same molecule, the ear thickness ([2]; 0.1% ointment, Day 11) was 0.24±0.01 mm, the ear thickness ([2]; 0.1% ointment, Day 12) was 0.24±0.01 mm and the ear thickness ([2]; 0.1% ointment, Day 13) was 0.21±0.01 mm. For the same molecule, the ear thickness ([2]; 0.1% ointment, Day 14) was 0.21±0.01 mm, the “inhibition rate (ear thickness)” value ([2]; 1% Compound 1 ointment) was 80% and the ear thickness ([2]; 1% ointment, Day 1) was 0.15±0.00 mm. The ear thickness ([2]; 1% ointment, Day 3) was 0.17±0.00 mm, the ear thickness ([2]; 1% ointment, Day 5) was 0.21±0.00 mm and the ear thickness ([2]; 1% ointment, Day 7) was 0.22±0.01 mm. For the same molecule, the ear thickness ([2]; 1% ointment, Day 8) was 0.22±0.01 mm, the ear thickness ([2]; 1% ointment, Day 9) was 0.23±0.01 mm and the ear thickness ([2]; 1% ointment, Day 10) was 0.23±0.01 mm. For the same molecule, the ear thickness ([2]; 1% ointment, Day 11) was 0.24±0.00 mm, the ear thickness ([2]; 1% ointment, Day 12) was 0.23±0.01 mm and the ear thickness ([2]; 1% ointment, Day 13) was 0.20±0.00 mm. The ear thickness ([2]; 1% ointment, Day 14) was 0.19±0.00 mm, the “Dermatitis Score” value ([2]; 0.01% ointment for 7 days) was 3.50±0.22 and the “Dermatitis Score” value ([2]; 0.1% ointment for 7 days) was 2.67±0.21. The “Dermatitis Score” value ([2]; 1% ointment for 7 days) was 2.33±0.33.

With `CN(C)C[C@@H]1C(=O)O[C@H]2[C@H]1CC[C@@]1(C)C[C@]13CC[C@@](C)(O)[C@H]23` [compound 20] the “24-hour urine protein level” value (lupus nephritis) was 0.58±0.03, the BUN (lupus nephritis; serum) was 9.55±0.75 and the Scr (lupus nephritis; serum) was 18.55±1.08. The Kim-1 (lupus nephritis; urine) was 0.41±0.02, the β-MG (lupus nephritis; urine) was 13.55±0.14 and the Kim-1 [3] was 0.64±0.10. For the same molecule, the Mcp-1 [3] was 1.40±0.22, the Ngal [3] was 0.96±0.13 and the Tnf-α [3] was 0.96±0.13. The “T-cell proliferation rate (%)” value (MDSCs and T cells) was “+ (T-cell proliferation rate within the 0-20% range compared to the control group)”.

From patent EP4813381A1, “PHARMACEUTICAL USE OF GUAIANE SESQUITERPENE DERIVATIVE” (Nanjing University Of Chinese Medicine, priority 2023, dated 2025)
